Patent US20110105626A1, “USE OF CYCLOHEXANEHEXOL DERIVATIVES FOR THE TREATMENT OF POLYGLUTAMINE DISEASES” (priority 2007, published 2011)
Entries after “also recorded” stand apart in the source; their conditions may differ.

What was measured:
Format in all cases: cell-based
Htt103Q-EGFP = target: T1, Htt103Q-EGFP (Homo sapiens, UniProt P42858); assay: Western blot of poly-Q protein expression in inducible PC-12 cells, normalized to GAPDH; conditions: for Htt103Q-EGFP protein expression level (western blot): cystamine bitartrate treatment
T1 construct: expressed in transfected cells; host or cells: PC-12 cells, stably transfected, pIND construct induced with 5 µM ponasterone
T1 sequence (P42858 with tags, fused parts or gaps limits assumed): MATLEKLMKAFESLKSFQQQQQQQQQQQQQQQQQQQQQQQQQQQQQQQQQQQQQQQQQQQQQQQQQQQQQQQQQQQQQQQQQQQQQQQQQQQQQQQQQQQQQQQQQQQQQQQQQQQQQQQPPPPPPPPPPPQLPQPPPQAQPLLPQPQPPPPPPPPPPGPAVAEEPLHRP
Experimental: (§1) Inducible PC-12 cells. PC-12 cells stably transfected with pIND constructs containing HttQ103P-EGFP. The cells upon stimulation with 5 μM ponasterone for 48 hrs express poly-Q protein with a EGFP carboxy-terminal epitope tag (Apostol, B. et al., PNAS 100, 5950-5955, 2003). Chemical Compound screen in PC-12 cells. Cells were plated in 6 well plates and grown overnight, then treated with 5 μM ponasterone for 48 hrs in the presence and absence of cystamine bitartrate or scyllo-inositol. Both were dissolved in water, and added directly to cultures at a final concentration of 1-50 μM and aggregation calculated. Visual counts of aggregates and EGFP-positive cells were performed using fluorescent microscopy. At least 300 cells were counted from 5-6 fields in three wells in each of three independent experiments. Aggregation is expressed as the percentage of cells with aggregates versus total number of EGFP-positive cells. Chemical compound was assessed for cellular toxicity by evaluating cell morphology, trypan blue exclusion and cell viability. Protein Expression. Cells were plated in 6 well plates and grown overnight, then treated with 5 μM ponasterone for 48 hrs in the presence and absence of cystamine bitartrate or scyllo-inositol. Cells were lysed in hypotonic solution containing 20 mM HEPES ph 7.5, 5 mM NaCl, 10 mM NaF, 2 mM EDTA, 1% Nonidet P-40, 1 mM sodium, orthovanadate, and protease inhibitors. Protein concentration was determined using the Bradford assay and 100 μg of protein was used for western blotting. Primary antibody to poly-glutamine was used to detect HttQ103, while GAPDH was used as an internal house-keeping standard. Westerns were scanned and densitometry was used to quantify PolyQ expression.
In order to examine changes in Htt103Q-EGFP protein concentration as a function of scyllo-inositol treatment, western blots were used (FIG. 3, 4). Cells were treated as above and then harvested for western blot analyses using a poly-glutamine specific antibody, and normalized to the housekeeping protein, GAPDH (FIG. 3). Blots were scanned and densitometry of each lane performed, to normalize for variations in protein loading pixels were normalized to those of GAPDH.

HttQ103P-EGFP = target: T2, HttQ103P-EGFP (Homo sapiens, UniProt P42858); assay: Aggregation of HttQ103P-EGFP in inducible PC-12 cells (visual counts by fluorescent microscopy)
T2 construct: expressed in transfected cells; host or cells: PC-12 cells, stably transfected, pIND construct induced with 5 µM ponasterone
T2 sequence (P42858 with tags, fused parts or gaps limits assumed): as above
Experimental: as §1
A hallmark of polyglutamine diseases is the accumulation of intracellular aggregates in the cytosol and nucleus of neurons. Therefore, the inducible PC-12 cell lines were utilized to address the question of inhibition of HttQ103P-EFGP aggregation using scyllo-inositol and a previously identified aggregation inhibitor, cystamine bitartrate. Aggregates are readily distinguished from soluble Htt, by intense small aggregate formation versus diffuse cellular staining pattern of soluble Htt (FIG. 1). Simultaneously with induction of HttQ103P-EFGP expression, scyllo-inositol was added to the cells in a final concentration range from 0-100 μM, with 50 μM cystamine bitartrate as a positive control. Cells were photographed using fluorescence microscopy and total cells expressing EFGP counted, and cells containing aggregates. Efficacy of treatment was determined by a reduction in the percentage of cells containing EGFP aggregates (FIG. 1, 2).

PC-12 cells = tested on: PC-12 cells
Experimental: as §1, with “Visual counts of aggregates and EGFP-positive cells were performed using fluorescent microscopy.” left out, “Protein Expression. Cells were plated in 6 well plates and grown overnight, then treated with 5 μM ponasterone for 48 hrs in the presence and absence of cystamine bitartrate or scyllo-inositol. Cells were lysed in hypotonic solution containing 20 mM HEPES ph 7.5, 5 mM NaCl, 10 mM NaF, 2 mM EDTA, 1% Nonidet P-40, 1 mM sodium, orthovanadate, and protease inhibitors.” left out, “Primary antibody to poly-glutamine was used to detect HttQ103, while GAPDH was used as an internal house-keeping standard.” left out
A hallmark of polyglutamine diseases is the accumulation of intracellular aggregates in the cytosol and nucleus of neurons. […] Cells were photographed using fluorescence microscopy and total cells expressing EFGP counted, and cells containing aggregates. […]

NCCSSCCN.O=C(O)C(O)C(O)C(=O)O (stereo not drawn) [cystamine bitartrate, reference compound]
Htt103Q-EGFP protein expression level (western blot) (Htt103Q-EGFP): no effect on Htt103 cellular protein concentration; also recorded: did not change protein expression levels | Htt103Q-EGFP protein expression level (western blot) (Htt103Q-EGFP; listed as Cystamine bitratrate): did not alter poly-Q protein expression | Aggregation (percentage of cells with aggregates versus total EGFP-positive cells) (HttQ103P-EGFP; 50 μM cystamine bitartrate as positive control, added simultaneously with induction): inhibits aggregate formation; also recorded: aggregated poly-Q is decreased; also recorded: decreased aggregation of poly-Q

O[C@H]1[C@H](O)[C@@H](O)[C@H](O)[C@@H](O)[C@@H]1O [scyllo-inositol]
Cell viability, trypan blue exclusion assay (PC-12 cells): no effect on cell viability | Morphological examination of cells for changes associated with toxicity (PC-12 cells): did not detect changes associated with toxicity | Concentrations at which poly-Q (Htt) protein is decreased / mutant Htt degradation is enhanced (Htt103Q-EGFP; inducible PC-12 cells, western blot): 25 to 100 µM | Htt103Q-EGFP protein concentration (western blot, densitometry) (Htt103Q-EGFP; scyllo-inositol concentration series, normalized to GAPDH): concentration dependant decrease in Htt protein; also recorded: decreased the protein concentration | poly-Q protein expression (Htt103Q-EGFP; scyllo-inositol up to 10 μM concentration): did not alter poly-Q protein expression | Concentrations at which aggregation of poly-Q repeat Htt is decreased (HttQ103P-EGFP; inducible PC-12 cells): 1 to 100 µM | Lowest concentration with significant decrease in the formation of aggregates (HttQ103P-EGFP; inducible PC-12 cells, FIG. 2): 1 µM | Aggregation (percentage of cells with aggregates versus total EGFP-positive cells) (HttQ103P-EGFP; scyllo-inositol 0-100 μM added simultaneously with induction, 5 μM ponasterone 48 hrs): concentration dependent effect of decreased aggregation | Aggregation (percentage of cells with aggregates versus total EGFP-positive cells) (HttQ103P-EGFP; scyllo-inositol 0-100 μM added simultaneously with induction, 5 μM ponasterone 48 hrs, listed as Scyllo-inositol): concentration dependent decrease in the formation of aggregates
